Test system: HCT116^MTAP Deletion cells
Test: Anti-proliferation assay on cells (Cell-Titer Glo, 10 days)
Type: cell-based
Details: 240 h, HCT116^MTAP Deletion cells, 10 days incubation, CTG readout; read-out: HCT116^MTAP Deletion GI50
Procedure: HCT116^MTAP Deletion cells were from Pharmaron (China); HCT116 cells were from ATCC; McCoy's 5A medium was purchased from Invitrogen (USA); penicillin-streptomycin and fetal bovine serum were purchased from Gibco (USA); a 384-well plate was purchased from PerkinElmer (USA); and Cell-Titer Glo reagent was purchased from Promega (USA).
Compound dissolution: All the compounds were dissolved in dimethyl sulfoxide (DMSO) and then stored. The compounds were stored at room temperature in a dry condition for 3 months for short term storage or at -20 °C for long term storage.
Cell culture and passaging
The cells were cultured strictly in accordance with ATCC requirements. The cell culture medium (McCoy's 5A medium + 10% fetal bovine serum + 1% penicillin + streptomycin) was transferred to a 15 mL centrifuge tube and centrifuged at 1000 rpm for 5 min. The supernatant was removed. The cells were resuspended with complete culture medium, inoculated into a culture dish at the required density, and cultured in an incubator at 37 °C, 95% humid air, and 5% carbon dioxide. The culture medium was replenished or the cells were passaged every 2-3 days depending on the cell growth condition.
Cell proliferation activity assay
When the confluency of cells in the culture dish reached about 90%, the cells were washed twice with PBS, and then treated with trypsin to become single cells. The cells were counted, and 40µl of the cells was inoculated into each well of a 384-well plate (50 cells/well). The plate was equilibrated at 37 °C and 5% carbon dioxide for 10 to 15 minutes. The compounds were injected into the 384-well plate using Echo550, and positive control and negative control (0.1% DMSO) were set up. Each compound was subjected to a 3-fold dilution, resulting in 10 concentration gradients, in duplicate, and the content of DMSO was 0.1%. The 384-well plate was incubated in a cell culture incubator for 10 days.
Then, 40 µl of cell proliferation assay reagent (CTG) was added to the 384-well plate, and the plate was shaken to mix well. Then, the 384-well plate was incubated at 37 °C and 5% carbon dioxide in the dark for 30 minutes. The data were read using the Envision multifunctional microplate reader. […] According to the different drug concentrations and their corresponding inhibition rates, the GI50 curve was drawn using GraphPad 8.0 software. The data were analyzed, and the final IC50 value was obtained.

`CN(C(=O)C(=O)Nc1cnc(N)c2c1cnn2C)C1COc2c1ccc(C(F)(F)F)c2F` (stereo not shown) [Example 208] and `CN(C(=O)C(=O)Nc1cnc(N)c2c1cnn2C)C1COc2cc(C(F)(F)F)c(F)cc21` (stereo not shown) [Example 199] fall in the same range of GI50: 10 to 100 nM for the first, 10 to 100 nM for the second.

`CN(C(=O)C(=O)Nc1cnc(N)c2c1cnn2C)C1COCc2cc(C3CCOCC3)ccc21` (stereo not shown) [Example 144] and `CN1CCC(c2ccc3c(c2)COCC3N(C)C(=O)C(=O)Nc2cnc(N)c3c2cnn3C)CC1` (stereo not shown) [Example 139] fall in the same range of GI50: 10 to 100 nM for the first, 10 to 100 nM for the second.

`CN(C(=O)C(=O)Nc1cnc(N)c2c1cnn2C)C1COCc2cc(-c3cnc(C(F)(F)F)s3)ccc21` (stereo not shown) [Example 191] and `CN(C(=O)C(=O)Nc1cnc(N)c2c1cnn2C)C1COCc2cc(OC(F)(F)F)ccc21` (stereo not shown) [Example 115] cannot be ordered by GI50: less than 10 nM for the first, less than 10 nM for the second.

Compared with `CN(C(=O)C(=O)Nc1cnc(N)c2c1cnn2C)C1COCc2cc(C3(F)CNC3)ccc21` (stereo not shown) [Example 203], `CN(C(=O)C(=O)Nc1cnc(N)c2c1cnn2C)C1COCc2cc(C34CCOCC3C4)ccc21` (stereo not shown) [Example 197] is lower in GI50: 10 to 100 nM for the first, less than 10 nM for the second.

`CC(C)CN(C(=O)C(=O)Nc1cnc(N)c2c1cnn2C)C1COc2cc(C(F)(F)F)ccc21` (stereo not shown) [Example 122] and `CN(C(=O)C(=O)Nc1cnc(N)c2c1cnn2C)C1CCOc2cc(C(F)(F)F)ccc21` (stereo not shown) [Example 127] fall in the same range of GI50: 10 to 100 nM for the first, 10 to 100 nM for the second.

`CC#Cc1ccc2c(c1)OCC2N(C)C(=O)C(=O)Nc1cnc(N)c2c1cnn2C` (stereo not shown) [Example 240] and `CN(C(=O)C(=O)Nc1cnc(N)c2c1cnn2C)C1COc2cc(C#N)ccc21` (stereo not shown) [Example 198] fall in the same range of GI50: 10 to 100 nM for the first, 10 to 100 nM for the second.

`Cn1ncc2c(NC(=O)C(=O)N(Cc3ccc(C(F)(F)F)cn3)Cc3ccnc4[nH]ccc34)cnc(N)c21` [Example 50] and `CC1OCc2c(NC(=O)C(=O)N(Cc3ccc(C(F)(F)F)cn3)Cc3ccnc4[nH]ccc34)cnc(N)c21` (stereo not shown) [Example 81] cannot be ordered by GI50: less than 10 nM for the first, less than 10 nM for the second.

`CN(C(=O)C(=O)Nc1cnc(N)c2c1cnn2C)C1COCc2cc(-c3ccccc3)ccc21` (stereo not shown) [Example 226] and `CN(C(=O)C(=O)Nc1cnc(N)c2c1cnn2C)C1COCc2cc(-c3ccnn3C3CC3)ccc21` (stereo not shown) [Example 232] cannot be ordered by GI50: less than 10 nM for the first, less than 10 nM for the second.

`CCC(C)N(Cc1ccc(OC2CC2)cn1)C(=O)C(=O)Nc1cnc(N)c(C)c1` (stereo not shown) [Example 83] and `CCOc1ccc(CN(C(=O)C(=O)Nc2cnc(N)c(C)c2)C(C)CC)nc1` (stereo not shown) [Example 62] fall in the same range of GI50: 10 to 100 nM for the first, 10 to 100 nM for the second.

`CCC(C)N(Cc1ccc(C#N)c(Cl)n1)C(=O)C(=O)Nc1cnc(N)c(C)c1` (stereo not shown) [Example 77] and `CCC(C)N(Cc1ccc(OC(F)(F)F)cn1)C(=O)C(=O)Nc1cnc(N)c(C)c1` (stereo not shown) [Example 92] fall in the same range of GI50: 10 to 100 nM for the first, 10 to 100 nM for the second.

`Cc1c(-c2ccc3c(c2)COCC3N(C)C(=O)C(=O)Nc2cnc(N)c3c2cnn3C)cnn1C` (stereo not shown) [Example 150] and `Cc1nn(C)cc1-c1ccc2c(c1)COCC2N(C)C(=O)C(=O)Nc1cnc(N)c2c1cnn2C` (stereo not shown) [Example 200] cannot be ordered by GI50: less than 10 nM for the first, less than 10 nM for the second.

`CN(C(=O)C(=O)Nc1cnc(N)c2c1cnn2C)C1COCc2ncccc21` (stereo not shown) [Example 151] and `CC(C)Oc1ccc2c(c1)COCC2N(C)C(=O)C(=O)Nc1cnc(N)c2c1cnn2C` (stereo not shown) [Example 128] fall in the same range of GI50: 10 to 100 nM for the first, 10 to 100 nM for the second.

`CN(C(=O)C(=O)Nc1cnc(N)c2c1cnn2C)C1COc2cc(N3CCOCC3)ccc21` (stereo not shown) [Example 205] and `CN(C(=O)C(=O)Nc1cnc(N)c2c1cnn2C)C1COc2cc(C3CC3)ccc21` (stereo not shown) [Example 193] fall in the same range of GI50: 10 to 100 nM for the first, 10 to 100 nM for the second.

First: CN(C(=O)C(=O)Nc1cnc(N)c2c1cnn2C)C1COc2cc(OC(F)F)ccc21 (stereo not shown) [Example 204]
Second: CC(C)c1ccc2c(c1)OCC2N(C)C(=O)C(=O)Nc1cnc(N)c2c1cnn2C (stereo not shown) [Example 230]
The GI50 of the first is higher: 10 to 100 nM for the first, less than 10 nM for the second.

`CN(C(=O)C(=O)Nc1cnc(N)c2c1COC2)C1COCc2cc(C(F)(F)F)ccc21` (stereo not shown) [Example 56] and `CN(C(=O)C(=O)Nc1cnc(N)c2c1cnn2C)C1COCc2ccc(C(F)(F)F)cc21` (stereo not shown) [Example 134] fall in the same range of GI50: 10 to 100 nM for the first, 10 to 100 nM for the second.

First: Cc1cc(NC(=O)C(=O)N(Cc2ccc(C(F)(F)F)cn2)C(C)C(C)C)cnc1N (stereo not shown) [Example 86]
Second: CCC(C)N(Cc1ncc(C(F)(F)F)cn1)C(=O)C(=O)Nc1cnc(N)c(C)c1 (stereo not shown) [Example 82]
The GI50 of the first is lower: 10 to 100 nM for the first, 100 to 1000 nM for the second.

First: CN(C(=O)C(=O)Nc1cnc(N)c2c1cnn2C)C1COc2cc(C(F)(F)F)ncc21 (stereo not shown) [Example 188]
Second: CN(C(=O)C(=O)Nc1cnc(N)c2c1cnn2C)C1COc2cc(C(F)(F)C(F)(F)F)ccc21 (stereo not shown) [Example 210]
The GI50 of the first is higher: 10 to 100 nM for the first, less than 10 nM for the second.

First: CN1CCN(c2ccc3c(c2)COCC3N(C)C(=O)C(=O)Nc2cnc(N)c3c2cnn3C)CC1 (stereo not shown) [Example 149]
Second: CN(C(=O)C(=O)Nc1cnc(N)c2c1cnn2C)C1COCc2nc(-c3ccccc3F)ccc21 (stereo not shown) [Example 225]
The GI50 of the first is higher: 10 to 100 nM for the first, less than 10 nM for the second.

Compared with `CN(C(=O)C(=O)Nc1cnc(N)c2c1cnn2C)C1CCOC1` (stereo not shown) [Example 126], `CN(C(=O)C(=O)Nc1cnc(N)c2c1cnn2C)C1COCc2cc(C(F)(F)F)cnc21` (stereo not shown) [Example 114] is lower in GI50: 1000 to 10000 nM for the first, 100 to 1000 nM for the second.

First: CC(c1cscn1)N(Cc1ccc(C(F)(F)F)cn1)C(=O)C(=O)Nc1cnc(N)c2c1COC2 (stereo not shown) [Example 68]
Second: COc1ncc(NC(=O)C(=O)N(C)C2COCc3cc(C(F)(F)F)ccc32)cc1C(N)=O (stereo not shown) [Example 143]
The GI50 of the first is lower: 10 to 100 nM for the first, 100 to 1000 nM for the second.

Same assay, conditions: HCT116^MTAP Deletion cells, 10 days incubation, CTG readout; read-out: HCT116^MTAP Deletion GI50

`CN(C(=O)C(=O)Nc1cnc(N)c2c1cnn2C)C1COCc2cc(Br)ccc21` (racemic) [compound 182] and `CN(C(=O)C(=O)Nc1cnc(N)c2c1cnn2C)C1COc2cc(Br)ccc21` (racemic) [compound 180] cannot be ordered by GI50: less than 10 nM for the first, less than 10 nM for the second.

First: C[C@H](c1ncccn1)N(Cc1ccc(C(F)(F)F)cn1)C(=O)C(=O)Nc1cnc(N)c(Br)c1 [Example 24]
Second: C[C@H](c1ncccn1)N(Cc1ccc(C(F)(F)F)cn1)C(=O)C(=O)Nc1cnc(N)c(F)c1 [Example 22]
The GI50 of the first is lower: 100 to 1000 nM for the first, 1000 to 10000 nM for the second.

Compared with `CN(C(=O)C(=O)Nc1cnc(N)c2c1cnn2C)C1COCc2cc(-c3cnn(C)c3)ccc21` (stereo not shown) [Example 124-P2], `Cc1ncc(-c2ccc3c(c2)COCC3N(C)C(=O)C(=O)Nc2cnc(N)c3c2cnn3C)s1` (racemic) [compound 181] is lower in GI50: 10 to 100 nM for the first, less than 10 nM for the second.

`CCC(C)N(Cc1ccc(C(F)(F)F)cn1)C(=O)C(=O)Nc1cnc(N)c2c1cnn2C` (racemic) [Example 46-P1] and `CC(c1cscn1)N(Cc1ccc(C(F)(F)F)cn1)C(=O)C(=O)Nc1cnc(N)c2c1cnn2C` (stereo not shown) [Example 44] fall in the same range of GI50: 10 to 100 nM for the first, 10 to 100 nM for the second.

`CN(C(=O)C(=O)Nc1cnc(N)c2c1cnn2C)C1COCc2c(F)cc(Cl)cc21` (racemic) [compound 155] and `CN(C(=O)C(=O)Nc1cnc(N)c2c1cnn2C)C1COCc2c1ccc(F)c2F` (stereo not shown) [Example 141-P1] fall in the same range of GI50: 10 to 100 nM for the first, 10 to 100 nM for the second.

First: Cc1cc(NC(=O)C(=O)N(Cc2ccc(C(F)(F)F)cn2)C2CCCOC2)cnc1N (single isomer, unassigned) [Example 14-P1]
Second: CCC(C)N(Cc1ccc(C(F)(F)F)cn1)C(=O)C(=O)Nc1cnc(N)c(C)c1 (single isomer, unassigned) [Example 45-P2]
The GI50 of the first is higher: 100 to 1000 nM for the first, 10 to 100 nM for the second.

Compared with `CN(C(=O)C(=O)Nc1cnc(N)c2c1cnn2C)C1COc2nc(C(F)(F)F)ccc21` (stereo not shown) [Example 159], `CN(C(=O)C(=O)Nc1cnc(N)c2c1cnn2C)C1COCc2cc(C(F)(F)F)ccc21` (stereo not shown) [Example 48] is lower in GI50: 100 to 1000 nM for the first, less than 10 nM for the second.

Compared with `Cn1ncc2c(NC(=O)C(=O)N(Cc3ccc(C(F)(F)F)cn3)CC3CCC3)cnc(N)c21` [Example 4], `Cn1ncc2c(NC(=O)C(=O)N(Cc3ccc(C(F)(F)F)cn3)CC3CC3)cnc(N)c21` [Example 43] is lower in GI50: 10 to 100 nM for the first, less than 10 nM for the second.

Compared with `CN(C(=O)C(=O)Nc1cnc(N)c2c1cnn2C)C1COCc2cc(C3=CCC(F)(F)CC3)ccc21` (racemic) [compound 174], `CN(C(=O)C(=O)Nc1cnc(N)c2c1cnn2C)C1COc2cc(C3=CCOCC3)ccc21` (single isomer, unassigned) [Example 153-P2] is higher in GI50: less than 10 nM for the first, 100 to 1000 nM for the second.

`CN(C(=O)C(=O)Nc1cnc(N)c2c1cnn2C)C1COc2cc(-c3ccnn3C)ccc21` (racemic) [compound 192] and `CN(C(=O)C(=O)Nc1cnc(N)c2c1cnn2C)C1COc2cc(-c3cnc(C4CC4)s3)ccc21` (stereo not shown) [Example 236] cannot be ordered by GI50: less than 10 nM for the first, less than 10 nM for the second.

`CC1OCc2c(NC(=O)C(=O)N(C)C3COCc4cc(C(F)(F)F)ccc43)cnc(N)c21` (single isomer, unassigned) [Example 146-P1] and `CCC(C)N(Cc1ccc(OCC(F)(F)F)nn1)C(=O)C(=O)Nc1cnc(N)c(C)c1` (stereo not shown) [Example 63] fall in the same range of GI50: 100 to 1000 nM for the first, 100 to 1000 nM for the second.

`C[C@H](c1ncccn1)N(Cc1ccc(C(F)(F)F)cn1)C(=O)C(=O)Nc1cnc(N)c2cncn12` [Example 38] and `Cc1cc(/C=C/C(=O)N(Cc2ccc(C(F)(F)F)cn2)[C@H](C)c2ncccn2)cnc1N` [Example 6] cannot be ordered by GI50: greater than 10000 nM for the first, greater than 10000 nM for the second.

From patent EP4563571A1, “PRMT5 INHIBITORS” (Beijing Earthwise Technology Co., Ltd., priority 2022, dated 2024)
